Counter-ions that a name gives are not always drawn.
Test: Particle size distribution by laser light scattering (Malvern Mastersizer S)
Assay type: physicochemical
Details: mean equivalent spherical diameter; raloxifene hydrochloride used in Formulations 1-4
Text: For example, in Formulations 1-4 below, d(0.5) = 38.8 µm and d(0.9) = 90.4 µm. All particle sizes herein refer to the mean equivalent spherical diameter measured by laser light scattering techniques. Thus, the notation "d(0.5) greater than about 35 µm" means that 50% of the particles by volume have a mean equivalent spherical diameter of more than about 35 µm, as measured by laser light scattering. The laser light scattering measurement instrument used to measure the particle size distributions in the Examples was a Malvern Mastersizer® S. The dissolution profile was generated by testing in either 900 mL or 2 L of a 0.1 % aqueous polysorbate 80 solution, using paddle apparatus (USP Apparatus II) at 50 rpm at 37°C.

Q: Which “d(0.5)” value does the source give for O=C(c1ccc(OCCN2CCCCC2)cc1)c1c(-c2ccc(O)cc2)sc2cc(O)ccc12 [raloxifene hydrochloride] here?
A: The value was 38.8 µm.

Q: And the “d(0.9)” value?
A: The value was 90.4 µm.
